Patent US6156700A, “3-(1,2-Benzisothiazol- and isoxazol-5-yl)-2,4(1H,3H)-pyrimidinedione or thione and 3-(1,2-benzisothiazol- and isoxazol-5-yl)-4(3H)-pyrimidinone or thione herbicidal agents” (American Cyanmid Company, priority 1998, dated 2000)

Key:
[1] = tested on: Morningglory, Ivyleaf, Ipomoea hederacea; assay: Postemergence herbicidal evaluation, IPOHE; type: in vivo, (L.) Jacq.; details: 0.0630 kg/ha
Experimental: (§1) In the tests, seedling plants are grown in jiffy flats for about two weeks. The test compounds are dispersed in 50/50 acetone/water mixtures containing 0.5% TWEEN®20, a polyoxyethylene sorbitan monolaurate surfactant of Atlas Chemical Industries, in sufficient quantities to provide the equivalent of about 0.0157 kg to 0.500 kg per hectare of active compound when applied to the plants through a spray nozzle operating at 40 psi for a predetermined time. After spraying, the plants are placed on greenhouse benches and are cared for in accordance with conventional greenhouse procedures. From four to five weeks after treatment, the seedling plants are examined and rated according to the rating system set forth below. Where more than one test is involved for a given compound, the data are averaged.
(§2) Results of herbicide evaluation are expressed on a rating scale (0-9). The scale is based upon a visual observation of plant stand, vigor, malformation, size, chlorosis and overall plant appearance as compared with a control.

[2] = tested on: Barnyardgrass, Echinochloa crus-galli; assay: Postemergence herbicidal evaluation, ECHCG; type: in vivo, (L.) Beau; details: 0.0630 kg/ha
Experimental: as §1, §2

[3] = tested on: Foxtail, Green, Setaria viridis; assay: Postemergence herbicidal evaluation, SETVI; type: in vivo, (L.) Beau; details: 0.0630 kg/ha
Experimental: as §1, §2

[4] = tested on: Sicklepod, Cassia obtusifolia; assay: Postemergence herbicidal evaluation, CASOB; type: in vivo, L.; details: 0.0630 kg/ha
Experimental: as §1, §2

Corn, Field, Zea mays = assay: Postemergence herbicidal evaluation, ZEAMX; type: in vivo, L.; details: 0.0630 kg/ha
Experimental: as §1, §2

[5] = tested on: Wheat, Winter, cv Riband, Triticum aestivum; assay: Postemergence herbicidal evaluation, TRZAWR; type: in vivo; details: 0.0630 kg/ha
Experimental: as §1, §2

[6] = tested on: Velvetleaf, Abutilon theophrasti; assay: Postemergence herbicidal evaluation, ABUTH; type: in vivo, Medic.; details: 0.0630 kg/ha
Experimental: as §1, §2

[7] = tested on: Ragweed, Common, Ambrosia artemisifolia; assay: Postemergence herbicidal evaluation, AMBEL; type: in vivo, L.; details: 0.0630 kg/ha
Experimental: as §1, §2

[8] = tested on: Lambsquarters, Common, Chenopodium album; assay: Postemergence herbicidal evaluation, CHEAL; type: in vivo, L.; details: 0.0630 kg/ha
Experimental: as §1, §2

[9] = tested on: Rice, Tebonnet, Oryza sativa; assay: Postemergence herbicidal evaluation, ORYSAT; type: in vivo, (L.) Tebonnet; details: 0.0630 kg/ha
Experimental: as §1, §2

[10] = tested on: Soybean, Williams, Glycine max; assay: Postemergence herbicidal evaluation, GLXMAW; type: in vivo, (L.) Merr. cv Williams; details: 0.0630 kg/ha
Experimental: as §1, §2

Galium, Galium aparine = assay: Postemergence herbicidal evaluation, GALAP; type: in vivo; details: 0.0630 kg/ha
Experimental: as §1, §2

MOOVA Monochoria = assay: Postemergence weed control, flooded paddy (Table IV); type: in vivo, Monochoria vaginalis; design: scale not given here
Excerpt: (§3) Plastic containers containing weeds which are 3 to 5 cm tall and rice seedlings at the 1.5 to 2.5 leaf stage are flooded with water. The water is maintained at 1.5 to 3 cm above the soil surface for the duration of the experiment. Test compounds are applied as aqueous/acetone mixtures 50/50 v/v directly into the flood water to provide the equivalent of about 0.0313 to 0.500 kg/ha of active ingredient. The treated containers are placed on greenhouse benches and cared for in accordance with conventional greenhouse procedures. Three to four weeks after treatment, the test is terminated and each container is examined and herbicidal effect rated according to the rating system provided in Example 185. The compounds evaluated are reported by compound number given in Example 185.

CYPIR Rice Flatsedge = assay: as above; type: in vivo, Cyperus iria; design: scale not given here
Excerpt: as §3

CYPSE Flatsedge = assay: as above; type: in vivo, Cyperus serotinus; design: scale not given here
Excerpt: as §3

ORYSAT Rice, Tebonnet = assay: Rice tolerance, flooded paddy (Table IV); type: in vivo, Oryza sativa; design: scale not given here; details: crop tolerance
Excerpt: as §3

[11] = tested on: ECHORC Watergrass (Calif.); assay: Postemergence weed control, flooded paddy (Table IV); type: in vivo, Echinochloa oryzoides; design: scale not given here
Excerpt: as §3

[12] = tested on: SAGPY Arrowhead (Pygmaea); assay: as above; type: in vivo, Sagittaria pygmaea; design: scale not given here
Excerpt: as §3

SMILES	herbicide rating (0-9) [1]	herbicide rating (0-9) [2]	herbicide rating (0-9) [3]	herbicide rating (0-9) [4]	herbicide rating (0-9) (Corn, Field, Zea mays)	herbicide rating (0-9) [5]	herbicide rating (0-9) [6]	herbicide rating (0-9) [7]	herbicide rating (0-9) [8]	herbicide rating (0-9) [9]	herbicide rating (0-9) [10]	herbicide rating (0-9) (Galium, Galium aparine)	herbicidal effect rating (MOOVA Monochoria; 0.1250 kg/ha)	herbicidal effect rating (CYPIR Rice Flatsedge; 0.1250 kg/ha)	herbicidal effect rating (CYPSE Flatsedge; 0.1250 kg/ha)	herbicidal effect rating (ORYSAT Rice, Tebonnet; 0.1250 kg/ha)	herbicidal effect rating ([11]; 0.1250 kg/ha)	herbicidal effect rating ([12]; 0.1250 kg/ha)	also measured
CC#CC(C)OC(=O)COc1ccc(C)cc1-c1nsc2ccc(-n3c(=O)cc(C(F)(F)F)n(C)c3=O)cc12 (stereo not drawn) [Compound 76, 1-Methyl-2-butynyl {{2-{5-[3,6-dihydro-3-methyl-2,6-dioxo-4-(trifluoromethyl)-1(2H)-pyrimidinyl]-1,2-benzisothiazol-3-yl}-p-tolyl}oxy}acetate]	9.0	9.0	9.0	9.0	8.0	9.0	9.0	9.0	9.0	6.0	9.0	9.0							
COCc1nsc2ccc(-n3c(=O)cc(C(F)(F)F)n(C)c3=O)cc12 [Compound 31, 3-[3-(Methoxymethyl)-1,2-benzisothiazol-5-yl]-1-methyl-6-(trifluoromethyl)-2,4 (1H,3H)-pyrimidinedione]	9.0	4.0	9.0	9.0	6.0	3.0	9.0	9.0	9.0	3.0	9.0	8.0							
C=CCOc1ccc(C)cc1-c1nsc2ccc(-n3c(=O)cc(C(F)(F)F)n(C)c3=O)cc12 [Compound 65, 3-{3-[6-(Allyloxy)-m-tolyl)-1,2-benzisothiazol-5-yl}-1-methyl-6-(trifluoromethyl)-2,4(1H,3H)-pyrimidinedione]	9.0	1.0	9.0	9.0	5.5	3.5	9.0	9.0	9.0	1.5	5.5	4.0							
Cc1ccc(OCC(=O)OCc2ccccn2)c(-c2nsc3ccc(-n4c(=O)cc(C(F)(F)F)n(C)c4=O)cc23)c1 [Compound 72, 2-Pyridylmethyl {{2-{5-[3,6-dihydro-3-methyl-2,6-dioxo-4-(trifluoromethyl)-1(2H)-pyrimidinyl]-1,2-benzisothiazol-3-yl}-p-tolyl}oxy}acetate]	9.0	9.0	9.0	7.0	8.0	7.5	9.0	9.0	9.0	7.5	9.0	9.0							
Cc1ccc(OC(C)C(=O)OCc2ccco2)c(-c2nsc3ccc(-n4c(=O)cc(C(F)(F)F)n(C)c4=O)cc23)c1 (stereo not drawn) [Compound 79, Furfuryl 2-{{2-{5-[3,6-dihydro-3-methyl-2,6-dioxo-4-(trifluoromethyl)-1(2H)-pyrimidinyl]-1,2-benzisothiazol-3-yl}-p-tolyl}oxy}propionate]	9.0	9.0	9.0	7.0	7.5	8.5	9.0	9.0	9.0	7.5	7.5	9.0							
Cn1c(C(F)(F)F)cc(=O)n(-c2ccc3snc(Cl)c3c2)c1=O [Compound 37, 3-(3-chloro-1,2-benzisothiazol-5-yl)-1-methyl-6-(trifluoromethyl)-2,4(1H,3H)-pyrimidinedione]	1.0	0.0	0.0	0.0	2.0	0.5	1.0	0.0	0.0	0.5	1.5	0.0							
CCOc1cccc(-c2nsc3ccc(-n4c(=O)cc(C(F)(F)F)n(C)c4=O)cc23)c1 [Compound 327, 2,4(1H,3H)-Pyrimidinedione, 3-[3-(m-ethoxyphenyl)-1,2-benzisothiazol-5-yl]-1-methyl-6-(trifluoromethyl)-]													9.0	9.0	0.0	5.0	9.0	4.0	herbicidal effect rating (MOOVA Monochoria; 0.2500 kg/ha): 9.0; herbicidal effect rating (CYPIR Rice Flatsedge; 0.2500 kg/ha): 9.0; herbicidal effect rating (CYPSE Flatsedge; 0.2500 kg/ha): 2.0; herbicidal effect rating (ORYSAT Rice, Tebonnet; 0.2500 kg/ha): 4.0; herbicidal effect rating ([11]; 0.2500 kg/ha): 9.0; herbicidal effect rating ([12]; 0.2500 kg/ha): 4.0
CC(C)Oc1cccc(-c2nsc3ccc(-n4c(=O)cc(C(F)(F)F)n(C)c4=O)cc23)c1 [Compound 328, 2,4(1H,3H)-Pyrimidinedione, 3-[3-(m-isopropoxyphenyl)-1,2-benzisothiazol-5-yl]-1-methyl-6-(trifluoromethyl)-]													9.0	9.0	6.0	4.0	9.0	2.0	herbicidal effect rating (MOOVA Monochoria; 0.2500 kg/ha): 9.0; herbicidal effect rating (CYPIR Rice Flatsedge; 0.2500 kg/ha): 9.0; herbicidal effect rating (CYPSE Flatsedge; 0.2500 kg/ha): 6.0; herbicidal effect rating (ORYSAT Rice, Tebonnet; 0.2500 kg/ha): 4.0; herbicidal effect rating ([11]; 0.2500 kg/ha): 9.0; herbicidal effect rating ([12]; 0.2500 kg/ha): 6.0
COCc1nsc2cc(F)c(-n3c(=O)cc(C(F)(F)F)n(C)c3=O)cc12 [Compound 378, 2,4(1H,3H)-Pyrimidinedione, 3-[6-fluoro-3-(methoxymethyl)-1,2-benzisothiazol-5-yl]-1-methyl-6-(trifluoromethyl)-]													9.0	9.0	9.0	9.0	9.0	9.0	
COc1c(-c2nsc3ccc(-n4c(=O)cc(C(F)(F)F)n(C)c4=O)cc23)ccc(C)c1C [Compound 267, 2,4(1H,3H)-Pyrimidinedione,3-[3-(2-methoxy-3,4-xylyl)-1,2-benzisothiazol-5-yl]-1-methyl-6-(trifluoromethyl)-]													9.0	9.0	0.0	6.0	9.0	0.0	herbicidal effect rating (MOOVA Monochoria; 0.2500 kg/ha): 9.0; herbicidal effect rating (CYPIR Rice Flatsedge; 0.2500 kg/ha): 9.0; herbicidal effect rating (CYPSE Flatsedge; 0.2500 kg/ha): 0.0; herbicidal effect rating (ORYSAT Rice, Tebonnet; 0.2500 kg/ha): 7.0; herbicidal effect rating ([11]; 0.2500 kg/ha): 9.0; herbicidal effect rating ([12]; 0.2500 kg/ha): 0.0
COC(=O)COc1ccc(C)cc1-c1noc2cc(F)c(-n3c(=O)cc(C(F)(F)F)n(C)c3=O)cc12 [Compound 359, Acetic acid, {{2-{5-[3,6-dihydro-3-methyl-2,6-dioxo-4-(trifluoromethyl)-1(2H)-pyrimidinyl]-6-fluoro-1,2-benzisoxazol-3-yl}-p-tolyl}oxy}-, methyl ester]													9.0	9.0	0.0	4.0	6.0	0.0	
